# Measured values as given in paper PMC11189555, “Aryl amino acetamides prevent Plasmodium falciparum ring development via targeting the lipid-transfer protein PfSTART1” (Nature Communications, 2024).
# Tested on: SLI-N330K parasites
# Assay: Growth inhibition assay (72 h, LDH activity)
# Type: cell-based, Plasmodium falciparum
# Protocol: Parasite growth assays with inhibitory compounds were performed as per[11] and are fully described in the Supplementary Information.
# Molecular biology and transfection of P. falciparum: Selection Linked Integration […]
# To introduce the PfSTART1 mutations, the second half of the coding sequence of pfstart1 (PF3D7_0104200), was recodonised without introns to the bias of Saccharomyces cerevisiae containing either WT, N309K or N330K mutations, and synthesised as gBlock fragments (Integrated DNA Technologies). The first 819 bp of the 5′ native sequence of pfstart1 was amplified from gDNA, to form the 5’ homology block (5’ HB). The 3′ recodonised gBlock fragment comprising of the last 552 bp of either the WT, N309K or N330K pfstart1 to form the ‘recodon’ block (primers listed in Table S2). The 5’ HB and recodon products were sewn together by overlapping PCR to reconstitute the full coding sequence of pfstart1. These blocks (WT/N309K/N330K) were digested with BglII/PstI, and inserted into the parasite vector p-HA-2A-Neo-glmS
# 1. This plasmid contains an in -frame haemagglutinin (HA) epitope for protein identification and a P2A peptide (2A) to skip continuous peptide bond synthesis of a downstream neomycin resistance gene ( NeoR).
# Parasites containing the transfected DNA were selected using 2.5 nM WR99210 (Jacobus). To select for parasites in which single crossover integration had occurred into the pfstart1 locus, parasites were treated with 400 μg/mL G418 (geniticin, Sigma Aldrich) for 14 days: only parasites that have integrated the construct into their genome expressed the neomycin resistance gene together with the PfSTART1 protein.
# Parasite lines were cloned using limiting dilution. These clones were then tested on Western Blot (for correct HA-tagging and protein size), and correct integration and sequence were tested by PCR analysis: PCR on the gDNA was conducted using the primers START_5’UTR.F and START_Seq.R (Table S2). […]
# Growth inhibition assays. Synchronised ring-stage parasites (0.3-0.6% parasitemia, 2% haematocrit) were grown for 72 h in a serial-dilution of the compound under […]
# and compound 4. Note that M-833 was first purchased from MolPort (MolPort -002-267-916) then made in-house at WEHI: the differences observed in EC50s across experiments are attributed to the different batches of M -833. For some experiments, 0, 0.25 or 2.5 mM of glucosamine (GlcN) was also added. Experiments were set up in technical duplicates or triplicates. Following a freeze -thaw cycle, lactate dehydrogenase (LDH) activity was assessed as an indicator of parasite growt h 5. 30 μL of parasite culture was incubated for 30 min in the dark with 75 μL Malstat mixture (0.1 M Tris pH 9.0, 20 g/L lactic acid, pH 7.5, 0.2% Triton-X100, 0.5 g/L acetylpyridine adenine dinucleotide (APAD, Sigma), 200 μg/mL nitroblue tetrazolium (NBT; Sigma), 1 μg/mL phenozine ethosulfate (PES; Sigma)). Absorbance was then measured at 650 nm, transformed using the formula below, plotted against the logarithm of the concentrations, and a non-linear regression (log(inhibitor) vs. response, variable slope) was calculated using GraphPad Prism to assess the half-inhibitory […]
# Growth inhibition % = (1 − average(sample)− average(uRBC)) ∗ 100 […]
# The DMSO samples were also used to assess growth of parasite in the presence of 0.25 and 2.5 mM GlcN (normalised by DMSO in 0 mM GlcN).
# Egress, invasion & recovery assay. To measure egress, invasion and follow up recovery in the presence of different compounds, we adapted the method developed in6, using Hyp1-Nluc parasites7. These parasites episomally express the exported PEXEL protein Hyp1 (PF3D7_0113300) tagged with a NanoLuc luciferase (NLuc) and were selected with 2.5 nM WR99210 (Jacobus). Highly synchronised schizonts were obtained using ML10 (LifeArc) and sorbitol synchronisation, and Percoll-purified (the culture was gently layered over 67% Percoll (Cytiva) in RPMI, and centrifuged for 15 min at 1500 g and the schizont layer was collected and washed). […]
smiles,measurement,setting,value
Cc1cc(Cl)c(S(=O)(=O)N2CCCC2)cc1OCC(=O)NC1CCCCC1 [M-833],sample/DMSO,"0.00152416 uM M-833, START(N330K), 0 mM GlcN, biological replicate 2",1.655
same,sample/DMSO,"0.00152416 uM M-833, START(N330K), 0.25 mM GlcN, biological replicate 1",-2.909
same,sample/DMSO,"0.00152416 uM M-833, START(N330K), 0.25 mM GlcN, biological replicate 2",8.825
same,sample/DMSO,"0.00152416 uM M-833, START(N330K), 2.5 mM GlcN, biological replicate 1",11.1758
same,sample/DMSO,"0.00457247 uM M-833, START(N330K), 0 mM GlcN, biological replicate 1",3.2212
same,sample/DMSO,"0.00457247 uM M-833, START(N330K), 0 mM GlcN, biological replicate 2",9.585
same,sample/DMSO,"0.00457247 uM M-833, START(N330K), 0 mM GlcN, biological replicate 3",4.929
same,sample/DMSO,"0.00457247 uM M-833, START(N330K), 0 mM GlcN, biological replicate 4",-5.471
same,sample/DMSO,"0.00457247 uM M-833, START(N330K), 0.25 mM GlcN, biological replicate 1",0.8993
same,sample/DMSO,"0.00457247 uM M-833, START(N330K), 0.25 mM GlcN, biological replicate 2",9.092
same,sample/DMSO,"0.00457247 uM M-833, START(N330K), 0.25 mM GlcN, biological replicate 3",-0.2009
same,sample/DMSO,"0.00457247 uM M-833, START(N330K), 0.25 mM GlcN, biological replicate 4",-11.7886
same,sample/DMSO,"0.00457247 uM M-833, START(N330K), 2.5 mM GlcN, biological replicate 1",14.0279
same,sample/DMSO,"0.00457247 uM M-833, START(N330K), 2.5 mM GlcN, biological replicate 2",17.9639
same,sample/DMSO,"0.00457247 uM M-833, START(N330K), 2.5 mM GlcN, biological replicate 3",-5.165
same,sample/DMSO,"0.00457247 uM M-833, START(N330K), 2.5 mM GlcN, biological replicate 4",-8.571
same,sample/DMSO,"0.0137174 uM M-833, START(N330K), 0 mM GlcN, biological replicate 1",7.141
same,sample/DMSO,"0.0137174 uM M-833, START(N330K), 0 mM GlcN, biological replicate 2",7.124
same,sample/DMSO,"0.0137174 uM M-833, START(N330K), 0 mM GlcN, biological replicate 3",-3.262
same,sample/DMSO,"0.0137174 uM M-833, START(N330K), 0 mM GlcN, biological replicate 4",6.3139
same,sample/DMSO,"0.0137174 uM M-833, START(N330K), 0.25 mM GlcN, biological replicate 1",1.512
same,sample/DMSO,"0.0137174 uM M-833, START(N330K), 0.25 mM GlcN, biological replicate 2",8.325
same,sample/DMSO,"0.0137174 uM M-833, START(N330K), 0.25 mM GlcN, biological replicate 3",2.478
same,sample/DMSO,"0.0137174 uM M-833, START(N330K), 0.25 mM GlcN, biological replicate 4",0
same,sample/DMSO,"0.0137174 uM M-833, START(N330K), 2.5 mM GlcN, biological replicate 1",15.7451
same,sample/DMSO,"0.0137174 uM M-833, START(N330K), 2.5 mM GlcN, biological replicate 2",11.3968
same,sample/DMSO,"0.0137174 uM M-833, START(N330K), 2.5 mM GlcN, biological replicate 3",-4.719
same,sample/DMSO,"0.0137174 uM M-833, START(N330K), 2.5 mM GlcN, biological replicate 4",-3.372
same,sample/DMSO,"0.0411523 uM M-833, START(N330K), 0 mM GlcN, biological replicate 1",8.934
same,sample/DMSO,"0.0411523 uM M-833, START(N330K), 0 mM GlcN, biological replicate 2",2.634
same,sample/DMSO,"0.0411523 uM M-833, START(N330K), 0 mM GlcN, biological replicate 3",5.053
same,sample/DMSO,"0.0411523 uM M-833, START(N330K), 0 mM GlcN, biological replicate 4",-9.704
same,sample/DMSO,"0.0411523 uM M-833, START(N330K), 0.25 mM GlcN, biological replicate 1",4.325
same,sample/DMSO,"0.0411523 uM M-833, START(N330K), 0.25 mM GlcN, biological replicate 2",-8.575
same,sample/DMSO,"0.0411523 uM M-833, START(N330K), 0.25 mM GlcN, biological replicate 3",-3.728
same,sample/DMSO,"0.0411523 uM M-833, START(N330K), 0.25 mM GlcN, biological replicate 4",-6.829
same,sample/DMSO,"0.0411523 uM M-833, START(N330K), 2.5 mM GlcN, biological replicate 1",19.2666
same,sample/DMSO,"0.0411523 uM M-833, START(N330K), 2.5 mM GlcN, biological replicate 2",13.1689
same,sample/DMSO,"0.0411523 uM M-833, START(N330K), 2.5 mM GlcN, biological replicate 3",1.449
same,sample/DMSO,"0.0411523 uM M-833, START(N330K), 2.5 mM GlcN, biological replicate 4",-4.731
same,sample/DMSO,"0.123457 uM M-833, START(N330K), 0 mM GlcN, biological replicate 1",11.901
same,sample/DMSO,"0.123457 uM M-833, START(N330K), 0 mM GlcN, biological replicate 2",1.439
same,sample/DMSO,"0.123457 uM M-833, START(N330K), 0 mM GlcN, biological replicate 3",5.443
same,sample/DMSO,"0.123457 uM M-833, START(N330K), 0 mM GlcN, biological replicate 4",0.2691
same,sample/DMSO,"0.123457 uM M-833, START(N330K), 0.25 mM GlcN, biological replicate 1",10.3138
same,sample/DMSO,"0.123457 uM M-833, START(N330K), 0.25 mM GlcN, biological replicate 2",8.225
same,sample/DMSO,"0.123457 uM M-833, START(N330K), 0.25 mM GlcN, biological replicate 3",5.9375
